Values quoted from earlier work in US8969340B2, “Methods for treating chronic pelvic pain syndrome” (Northwestern University, priority 2004, dated 2015).
Like-named read-outs stand apart in the source and are kept apart here.

Molecular target: T1, CCR-2 receptor (Homo sapiens, UniProt P41597)
T1 sequence (P41597 1-360 isoform P41597-2): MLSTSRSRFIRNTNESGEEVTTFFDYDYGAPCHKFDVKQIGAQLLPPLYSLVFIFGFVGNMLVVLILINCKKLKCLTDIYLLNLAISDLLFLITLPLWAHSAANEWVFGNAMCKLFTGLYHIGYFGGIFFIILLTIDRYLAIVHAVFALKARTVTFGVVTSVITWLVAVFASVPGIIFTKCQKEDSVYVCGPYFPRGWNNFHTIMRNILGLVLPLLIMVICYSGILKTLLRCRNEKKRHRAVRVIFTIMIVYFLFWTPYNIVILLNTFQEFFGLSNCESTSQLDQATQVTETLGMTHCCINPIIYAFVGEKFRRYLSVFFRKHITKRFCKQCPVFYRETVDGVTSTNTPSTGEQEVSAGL
Conditions: indolopiperidines

Row | Ki (variation of chain length n) [µM] | Ki (variation of X and R) [µM] | Structure (SMILES)
1 | > 10 | – | O=C(/C=C/c1ccc(Cl)c(Cl)c1)NCCN1CCC(c2c[nH]c3ccccc23)CC1 [compound 30]
2 | – | > 10 | O=S(=O)(NCCCCCN1CCC(c2c[nH]c3ccccc23)CC1)c1ccc(Cl)c(Cl)c1 [compound 10]
